Source: a melting point compilation (Tetko et al.; mined from patent text by program, amines drawn as free bases though some values may be those of a salt)

| melting point | SMILES |
| --- | --- |
| 150 °C | Cc1cc(-n2ccnc2)c2cccc(OCc3c(Cl)ccc(S(=O)(=O)N4CCC[C@H]4C(=O)NCC4CCNCC4)c3Cl)c2n1 |
| 159 to 160 °C | CC(O)(C1CCC(Oc2ncnc3ccccc23)CC1)C(F)(F)F (centres undefined) |
| 77 to 80 °C | Cc1cc(S(=O)(=O)Nc2onc(C)c2Br)c(C)s1 |
| 160 to 162 °C | O=C1C(c2ccc(O)cc2)=C(Br)c2c(O)cc(O)cc21 |
| 115 to 117 °C | CC(C)CCCC(C)C1CCC2C3=C(CCC21C)C1(C)CCC(O)CC1CC3=O (centres undefined) |
| 186 to 188 °C | Cc1ccc([N+](=O)[O-])cc1Nc1nccc(-c2cccnc2)n1 |
| 192 to 194 °C | O=c1nc(-c2cccc(SCCCc3ccccc3)n2)sc2ccccc12 |
| 111 to 112 °C | CC1(C)C(c2ccc(O)cc2)C1(Cl)Cl (centres undefined) |
| 129 °C | O=c1[nH]c2ccccc2n1CC1CCN(CC(O)COc2ccc(Cl)cc2)C1 (centres undefined) |
| 110 to 111 °C | C=CCc1cc(Nc2ccn(-c3ccccc3)n2)cc(CC=C)c1OC(C)=O |
| 133 °C | Cn1nc(Br)c([N+](=O)[O-])c1NCc1ccccc1 |
| 112 to 114 °C | CCCCN(C)C(=O)CSCCCCCOc1ccc(C2=C(c3ccccc3)CCCc3cc(O)ccc32)cc1 |
| 45 to 47 °C | CCOC(=O)c1ccc(Br)c(OC(F)F)c1Br |
| 197 to 201 °C | CCOC(=O)C(Cc1c[nH]c2c(C(=O)c3ccc(Cl)cc3)cccc12)C(=O)OCC |
| 272 to 273 °C | COc1ccc(Cn2c(=O)[nH]c3ncccc3c2=O)cc1 |
| 165 to 168 °C | N#CCCN1CCC(C2c3ccccc3C=Cc3ccccc32)CC1 |
| 193 to 195 °C | O=C(O)CCCCCCCCCCSc1nc(-c2ccccc2)c(-c2ccccc2)[nH]1 |
| 215 to 216 °C | CCCN1C(=O)N2CCN=C2c2[nH]c(C3CCCC3)nc21 |
| 338 °C | Oc1ccc(-c2nnc(-c3ccc(O)cc3)o2)cc1 |
| 126 to 127 °C | CCOC(=O)C(=O)c1oc(-n2ccnc2C)nc1-c1ccc(Cl)cc1 |
| 194 to 195 °C | CC(O)=C1C(c2ccccc2)=C(c2ccc(S(C)(=O)=O)cc2)C1(Cl)Cl |
| 220 °C | O=C(O)CCc1cc2c(Cl)c(Cl)ccc2n1S(=O)(=O)c1ccccc1 |
| 150 °C | Cn1ccc(Nc2ccc([N+](=O)[O-])cc2[N+](=O)[O-])n1 |
| 150 °C | Cn1c(=O)cc(-c2cccc(Cl)c2)c2cc(C(O)c3cncn3Cc3ccc(C#N)cc3)ccc21 (centres undefined) |
| 120 to 122 °C | Cc1nc(N2CCN(C)CC2)nc(N)c1-c1cccc(Br)c1 |

| melting point | SMILES |
| --- | --- |
| 115 to 116 °C | CNc1ccc(N)cc1[N+](=O)[O-] |
| 100 to 101 °C | CCCCCCCNC(=O)N(C)c1cccc(-c2ccc(CCC(=O)O)cc2OC)c1 |
| 94 to 105 °C | CC(=O)N[C@@H](CC(C)C)C(=O)N[C@@H](C(C)C)[C@@H](O)c1c(-c2ccccc2)c1=O |
| 189 to 191 °C | COc1cccc(NC(=O)c2ccc([N+](=O)[O-])cc2)c1 |
| 137 to 138 °C | COC(=O)c1cc(Br)c2c(c1Cl)OC(c1ccccc1)(c1ccccc1)O2 |
| 99 to 102 °C | O=C(CCC1CCCCCCCCCCC1)C1=C(O)COC1=O |
| 158 to 160 °C | Cc1nc2cc(C#N)ccc2s1 |
| 170 to 180 °C | Cn1c(C=Cc2ccccc2)cnc1[N+](=O)[O-] |
| 88 to 90 °C | CC(C)(C)OC(=O)[C@@H](C(N)c1ccccc1)[C@@H](O)C[C@@H](Cc1ccccc1)c1ncc2n1C(O)C(C)(C)C2=O (some centres undefined) |
| 150 to 153 °C | NC(=O)c1ccc(OCC(O)CCCl)cc1 (centres undefined) |
| 123 to 125 °C | CN(C(=O)OC(C)(C)C)c1cc(Oc2ccc(-c3ccc(OCc4ccccc4)cc3)cc2)ccc1[N+](=O)[O-] |
| 67 °C | CCc1ccc(-c2ccc(-c3ccc(CC)s3)c(F)c2)cc1 |
| 89 to 90 °C | COc1cc(-c2ccccn2)cc([N+](=O)[O-])c1OC |
| 273 to 274 °C | CS(=O)(=O)c1ccc2ccc(C(=O)O)cc2c1 |
| 118 to 125 °C | CC(C)OP(=O)(OCN1C(=O)c2c(C(C)C)cc(OCC(=O)O)cc2S1(=O)=O)OC(C)C |
| 122 to 123 °C | COc1cc(C(C)C)c(NC(=O)CN2CCN(CCSc3nc4cccc(C(F)(F)F)c4o3)CC2)c(C(C)C)c1 |
| 194 to 200 °C | CN(C)c1ccc2c(c1)Sc1cc(OC(=O)c3ccccc3)ccc1N2C(=O)c1ccccc1 |
| 123 to 124 °C | O=C(c1ccc(Br)cc1)c1ccc([N+](=O)[O-])cc1 |
| 196 to 198 °C | CCOc1cc(-c2cccc(C(=O)NCc3cccc4c3C(=O)N(C3CCC(=O)NC3=O)C4=O)n2)ccc1OC (centres undefined) |
| 248 to 250 °C | COc1ccc(Cl)cc1-c1c(N)c(=O)[nH]c2ccccc12 |
| 219 to 221 °C | Cn1c2ccccc2c2nc3cccc(C=O)c3nc21 |
| 242 °C | CNC1=NS(=O)(=O)N=C(Oc2ccccc2[N+](=O)[O-])N1C(C)C |
| 86 to 88 °C | COc1c(Nc2ncc3ccc(-c4ccccc4N(C)S(C)(=O)=O)n3n2)ccc(N2CCN(C[C@H](C)O)CC2)c1F |
| 230 to 232 °C | O=C(O)CNCCn1nc(-c2c(-c3ccccc3)nn3ccccc23)ccc1=O |
| > 300 °C | Nc1c(F)c(F)cc2c1c(=O)c(C(=O)O)cn2C1CC1 |

| melting point | SMILES |
| --- | --- |
| 184 to 186 °C | COc1ccc(CNc2nc(Cl)ccc2C(=O)O)cc1Cl |
| 89 to 91 °C | CC1(C)CC(OC(=O)c2ccccc2)CC(C)(C)N1N=Nc1ccccc1 |
| 138 °C | CCSC(=O)n1c(=NC(=O)N(C)C)sc2ccccc21 |
| 198 to 200 °C | O=C(O)c1cn(CCc2ccccc2)c2cc(C3CCCC3)nn2c1=O |
| 119 to 121 °C | CC(=O)C(C(C)=O)C(=O)Nc1ccccc1 |
| 91 to 93 °C | Cc1cn(N=Cc2ccccc2)cn1 |
| 139 to 145 °C | Cc1cc(Cl)c(C(=O)O)c(Cl)c1 |
| 117 to 118 °C | O=C(O)c1cccn1Cc1ccco1 |
| 103 to 110 °C | CCc1cc(=O)cc(CC)[nH]1 |
| 249 to 251 °C | C=Cc1cc(O)cc2nc(-c3ccc(O)c(F)c3)oc12 |
| 164 to 165 °C | CSc1ccc(-c2coc3ccc(-c4nnc([C@H](C)O)o4)cc23)cc1 |
| 108 to 110 °C | N#CSc1ccc(N)c(N)c1 |
| 196 to 198 °C | C#CCn1ncc(-c2ccc(S(C)(=O)=O)cc2)c(-c2ccc(F)cc2)c1=O |
| 150 °C | c1csc(-c2ccc(-c3cccs3)nc2)c1 |
| 245 to 247 °C | CCNc1nc(C)c(-c2ccnc(Nc3ccc(N4CCNCC4)cc3)n2)s1 |
| 63 to 66 °C | CC(C)(C)CNc1nc(Cl)cc(Cl)n1 |
| 272 °C | CCNC(=O)n1ccc(O)cc1=O |
| 198 to 200 °C | COc1c(N2CCC(CN)C2)c(F)cc2c(=O)c(C(=O)O)cn(C3CC3)c12 (centres undefined) |
| 210 to 215 °C | O=C(O)CCCC(=O)c1ccc(O)c(O)c1 |
| 157 to 158 °C | Cc1cccc(NC(=O)N(C)c2nc(-c3ccccc3)c(-c3ccc(=O)n(C(C)C)n3)s2)c1 |
| 71 to 72 °C | COC(=O)C#CCCc1c(C)c(OC)c(C)c(C)c1OC |
| 164 to 166 °C | COC(C(=O)O)c1ccc2nc(-c3ccc(Cl)cc3)oc2c1 (centres undefined) |
| 31 to 32.5 °C | CCOC(=O)C=Cc1ccc(C(F)(F)F)cc1 |
| 184 to 190 °C | COc1ccccc1-c1n[nH]c2c(Cl)cc(C)nc12 |
| 100 to 102 °C | Cc1ccc(-c2cc(OCC3CO3)c3ccccc3n2)cc1 (racemic) |

| melting point | SMILES |
| --- | --- |
| 202 to 204 °C | CCC1(Cc2nc[nH]c2C)CCc2c(C)c3ccccc3n2C1=O (centres undefined) |
| 204 to 206 °C | NC(N)=NC(=O)Cc1c(-c2ccccc2)csc1-c1ccccc1 |
| 190 to 192 °C | Cn1c2c(c3cc(C#N)ccc31)C(=O)CCC2 |
| 104 to 105 °C | FCc1cccc(C#CCCn2nc3cc(F)c(F)cc3n2)n1 |
| 175 to 177 °C | CC(C)NC(=O)C(O)C(Oc1ccccc1)c1ccc(Cl)cc1 (centres undefined) |
| 239 °C | CCCCc1cc(C(=O)O)ncc1C(=O)O |
| 124 to 126 °C | CCN(C)c1cccc(Cl)c1COc1cccn2c(Br)c(C)nc12 |
| 127 to 129 °C | O=C1CC[C@@H](c2ccccc2)[C@H](c2ccccc2)N1CO (relative stereo) |
| 140 to 143 °C | CCOc1ccc(C2(C(=O)Oc3ccc(C(=O)NO)cc3)CCCCC2)cc1 |
| 107 to 110 °C | CC1(n2ncc(-c3ccc(S(C)(=O)=O)cc3)c(-c3ccc(F)cc3)c2=O)CCCC1 |
| 83.8 °C | O=C(O)CCc1ccc(C(=O)NCc2ccccn2)cc1 |
| 64 to 66 °C | CCCCCCC1(CCCCCC)c2cc(Br)ccc2-c2ccc(Br)cc21 |
| 71 to 73 °C | COc1ccc(CCCOc2c(C)cc(-c3noc(C)n3)cc2C)cn1 |
| 206 °C | CON=C(C)c1ccccc1NC(C(N)=O)c1c(Cl)cccc1Cl (centres undefined) |
| 214 to 217 °C | Nc1ncc2c(n1)CCC(=O)C2 |
| 140 to 142 °C | S=c1n(CCc2ccccc2)ccn1C1CCc2ccccc2C1 (centres undefined) |
| > 220 °C | O=C(O)Cc1ccc2c(c1)C(=O)c1cc3ccccc3cc1C2=O |
| 99 to 103 °C | CN(C)CCNc1cc(Sc2ccc(Cl)cc2)nc(-c2ccc(Cl)c(Cl)c2)n1 |
| 120 to 125 °C | NC(=O)OCCn1nccc1-c1ccc(Oc2ccc(F)cc2)cc1 |
| 74 to 76 °C | NC(=NO)c1ccccc1C(F)(F)F |
| 102 to 105 °C | OC1CCN(c2nnc(-c3ccc(Cl)cc3)c(-c3ccc(Cl)cc3)n2)CC1 |
| 123 to 125 °C | O=C(c1cccnc1)N1CCC(c2ccccc2[N+](=O)[O-])=N1 |
| 210 °C | COc1ccc(C2=C(c3c[nH]c4ccccc34)C(=O)NC2=O)cc1OC |
| 138 to 140 °C | CCOC(=O)c1cc(-c2ccccc2)nc2c([N+](=O)[O-])cccc12 |

| SMILES | melting point |
| --- | --- |
| CCC[C@H]1C(=O)N[C@H]2CCN[C@@H]21 (relative stereo) | 97 to 100 °C |
| CC1(CNC(=O)CCl)OCCO1 | 128 to 130 °C |
| CN1c2ccc(F)cc2C(c2ccccc2)=NCC1CCl (centres undefined) | 173 to 188 °C |
| Fc1ccc(Cn2c(NC3CCN(CCc4cn5ccccc5n4)CC3)nc3ccccc32)cc1 | 208 °C |
| CNC(=O)c1[nH]c(C)c2c1CN=C(c1ccccc1F)c1cc(Cl)ccc1-2 | 252 to 255 °C |
